Source: patent US20250367302A1, “SMALL MOLECULE DRUG-OLIGONUCLEOTIDE CONJUGATE AND USE THEREOF” (SHANGHAI JIAO TONG UNIVERSITY, priority 2022, published 2025)
d = 2'-deoxy (DNA); r = 2'-OH (RNA)

How the values were obtained:
NFKBIZ mRNA = NFKBIZ mRNA expression by RT-qPCR in LPS-stimulated HCECs; assay type: cell-based, human; settings: LPS-stimulated (100 ng/mL) HCECs, 10 μM ASO or siRNA, without transfection reagent, 6 h + 48 h
Experimental: HCECs were inoculated in a 6-well plate at a density of 1×10^5 cells/well and cultured until adherence. The cells were then stimulated with 100 ng/mL lipopolysaccharide (LPS) overnight. After removing the supernatant, 1 mL of Opti-MEM medium containing ASONFKBIZ-h, ASONFKBIZ-h+Lipofectamine2000 (Lipo2000), and CsA-ASONFKBIZ-h (all containing 10 µM ASO) were added, respectively. Cells without any treatment were used as a blank reference (Mock). After incubation at 37° C. for 6 h, the cells were transferred into DMEM medium and incubated for another 48 h. The cells were collected and RNA was extracted for RT-qPCR to analyze the expression level of the NFKBIZ mRNA in HCECs, and experimental results were shown in FIG. 9. The expression level of NFKBIZ mRNA in HCECs after LPS stimulation was about 1.3 times that of normal cells. […] After adding CsA-ASONFKBIZ-h for co-incubation, the expression of NFKBIZ mRNA was reduced to about 0.8 times that of normal cells.
(§1) HCECs were inoculated in a 6-well plate at a density of 1×10^5 cells/well and cultured until adherence. The cells were then stimulated with 100 ng/mL LPS overnight. After removing the supernatant, 1 mL of Opti-MEM medium containing ASONFKBIZ-h+Lipo2000 complex and 2CsA-ASONFKBIZ-h nanomicelles (all containing 10 µM ASO) were added, respectively. After incubation at 37° C. for 6 h, the cells were transferred into DMEM medium and incubated for another 48 h. The cells were collected and RNA was extracted for RT-qPCR to analyze the expression level of the NFKBIZ mRNA in HCECs, and experimental results were shown in FIG. 12.
as §1, with “ng/ml” for “ng/mL”, “3CsA-ASONFKBIZ-h” for “2CsA-ASONFKBIZ-h”, “15.” for “12.”
HCECs were inoculated in a 6-well plate at a density of 1×10^5 cells/well and cultured until adherence. The cells were then stimulated with 100 ng/mL LPS overnight. 1 mL of Opti-MEM medium containing ASONFKBIZ-h+Lipo2000 complex and CsA3-ASONFKBIZ-h nanomicelles (all containing 10 µM ASO) were added, respectively. After incubation at […]. 37° C. for 6 h, the cells were transferred into DMEM medium and incubated for another 48 h. After collected and RNA was extracted for RT-qPCR to evaluate the expression level of NFKBIZ mRNA in HCECs, and the experimental results were shown in FIG. 23.
HCECs were inoculated in a 6-well plate at a density of 1×10^5 cells/well and cultured overnight until adherence. The cells were then stimulated with 100 ng/ml LPS for 12 h. After removing the supernatant, 1 mL of Opti-MEM medium containing siRNANFKBIZ-h+Lipo2000 complex and nCsA-siRNANFKBIZ-h (n=1, 2, 3) conjugates and nanomicelles (all containing 10 μM siRNA) were added, respectively. After incubation at 37° C. for 6 h, the cells were transferred into DMEM medium and incubated for another 48 h. The cells were collected and RNA was extracted for RT-qPCR to evaluate the expression of NFKBIZ mRNA in HCECs, and experimental results were shown in FIG. 27. […]

[1] = test system: Human corneal epithelial cells (HCECs); assay: Cellular uptake of FITC-labelled conjugate by flow cytometry; assay type: cell-based
Experimental: Human corneal epithelial cells (HCECs) were inoculated at a density of 5×10^4 cells/well in a 12-well plate and cultured overnight. After the medium was removed, 0.5 mL of fresh medium containing 10 μM or 100 μM CsA-ASONFKBIZ-h conjugate with FITC fluorescence was added and incubated with HCECs for 6 h, while a well plate without conjugate was used as a blank control (Mock group). After the incubation, the supernatant medium was discarded, and then the cells were digested with trypsin and washed 2 to 3 times with phosphate-buffered saline (PBS, pH=7.2). After the cells were collected, flow cytometric analysis was conducted using a flow cytometer, and experimental results were shown in FIGS. 8A-8B.

Substance	expression of NFKBIZ mRNA relative to normal cells (NFKBIZ mRNA)	cellular uptake ([1]; 10 μM or 100 μM FITC-labelled conjugate, 6 h)	average fluorescence intensity of cells, 100 UM versus 10 μM conjugate ([1]; FITC-labelled conjugate, 6 h incubation, flow cytometry)
2CsA-ASONFKBIZ-h: two CsA molecules coupled to 2DBCO ASO targeting human NFKBIZ (SEQ ID 3), self-assembled (ATCAGACAACGAATCGGGCNTT; two CsA via DBCO click; modified_base 20 OTHER; n is t base modified with DBCO moiety)	about 0.8 times that of normal cells	–	–
3CsA-ASONFKBIZ-h: three CsA molecules coupled to 3DBCO ASO targeting human NFKBIZ (SEQ ID 5), self-assembled (ATCAGACAACGAATCGGGCNTNTT; three CsA via DBCO click; modified_base 20 OTHER; n is t base modified with DBCO moiety; modified_base 22 OTHER)	about 0.75 times that of normal cells	–	–
CsA-ASONFKBIZ-h: single cyclosporin A (CsA-N3) click-coupled to 3′-DBCO ASO targeting human NFKBIZ gene (SEQ ID NO: 1) (ATCAGACAACGAATCGGGC; 3'-DBCO ASO click-conjugated to one cyclosporin A, sugar and linkages not given here, further chemistry not given here)	about 0.8 times that of normal cells	effectively taken up by cells	approximately 10 times
CsA-siRNANFKBIZ-h: one CsA coupled to sense strand of siRNA targeting human NFKBIZ (SEQ ID NO: 9/10) (sense GCCCGAUUCGUUGUCUGAUTT; antisense AUCAGACAACGAAUCGGGCTT; sugars from the 5' end r19 d2, backbone not given here; DBCO clicked to azide-modified cyclosporin A, further chemistry not fully specified)	level before LPS stimulation	–	–
